Laboratory results from the NIST ThermoML archive (doi:10.1021/je800242n).
“And” between values parts separate entries of the source, which are not always exact repeats. Equal values may be shown once. ± gives the expanded uncertainty stated by the source.

Conditions: Crystal

[F][Cd][F] [cadmium difluoride]
vapor or sublimation pressure (962 K): 1.26e-05 ± 1.4e-06 kPa | vapor or sublimation pressure (968 K): 1.35e-05 ± 1.8e-06 kPa | vapor or sublimation pressure (973 K): 1.58e-05 ± 4.9e-06 kPa | vapor or sublimation pressure (977 K): 2e-05 ± 3.7e-06 kPa | vapor or sublimation pressure (978 K): 2.51e-05 ± 4.5e-06 kPa | vapor or sublimation pressure (983 K): 2.51e-05 ± 4.3e-06 kPa | vapor or sublimation pressure (984 K): 2.69e-05 ± 3.7e-06 kPa | vapor or sublimation pressure (988 K): 3.39e-05 ± 5.1e-06 kPa | vapor or sublimation pressure (992 K): 3.39e-05 ± 6.7e-06 kPa | vapor or sublimation pressure (993 K): 3.47e-05 ± 6.6e-06 kPa | vapor or sublimation pressure (1000 K): 5.01e-05 ± 9.6e-06 kPa | vapor or sublimation pressure (1001 K): 4.68e-05 ± 9.5e-06 kPa | vapor or sublimation pressure (1002 K): 4.57e-05 ± 9.3e-06 kPa | vapor or sublimation pressure (1003 K): 5.75e-05 ± 1e-05 kPa | vapor or sublimation pressure (1004 K): 5.01e-05 ± 9.3e-06 kPa | vapor or sublimation pressure (1009 K): 6.76e-05 ± 7.4e-06 kPa | vapor or sublimation pressure (1012 K): 7.94e-05 ± 8.7e-06 kPa | vapor or sublimation pressure (1013 K): 6.92e-05 ± 1.2e-05 kPa and 6.76e-05 ± 1.2e-05 kPa and 7.59e-05 ± 1.3e-05 kPa | vapor or sublimation pressure (1014 K): 5.75e-05 ± 1.4e-05 kPa | vapor or sublimation pressure (1016 K): 6.76e-05 ± 1.3e-05 kPa | vapor or sublimation pressure (1017 K): 5.75e-05 ± 6.5e-06 kPa and 9.12e-05 ± 9.6e-06 kPa | vapor or sublimation pressure (1018 K): 8.51e-05 ± 8.6e-06 kPa | vapor or sublimation pressure (1021 K): 0.000102 ± 1.1e-05 kPa | vapor or sublimation pressure (1022 K): 8.71e-05 ± 1.6e-05 kPa and 0.000115 ± 1.8e-05 kPa | vapor or sublimation pressure (1025 K): 6.76e-05 ± 1.4e-05 kPa and 0.000107 ± 1.7e-05 kPa | vapor or sublimation pressure (1026 K): 7.94e-05 ± 1.5e-05 kPa | vapor or sublimation pressure (1027 K): 9.12e-05 ± 9.3e-06 kPa | vapor or sublimation pressure (1028 K): 0.000117 ± 1.2e-05 kPa | vapor or sublimation pressure (1030 K): 0.000126 ± 1.7e-05 kPa | vapor or sublimation pressure (1031 K): 0.000135 ± 1.6e-05 kPa | vapor or sublimation pressure (1032 K): 9.12e-05 ± 1.3e-05 kPa and 0.000102 ± 1.3e-05 kPa and 0.00012 ± 1.5e-05 kPa | vapor or sublimation pressure (1033 K): 9.12e-05 ± 9.2e-06 kPa and 0.000158 ± 1.6e-05 kPa | vapor or sublimation pressure (1036 K): 0.000102 ± 1.5e-05 kPa | vapor or sublimation pressure (1038 K): 0.000115 ± 2.1e-05 kPa and 0.000162 ± 2.4e-05 kPa | vapor or sublimation pressure (1040 K): 0.000135 ± 2e-05 kPa and 0.000186 ± 2.4e-05 kPa | vapor or sublimation pressure (1042 K): 0.000162 ± 2.5e-05 kPa and 0.000182 ± 2.6e-05 kPa | vapor or sublimation pressure (1043 K): 0.000186 ± 2.5e-05 kPa [middle of 4 runs] | vapor or sublimation pressure (1046 K): 0.000138 ± 3.1e-05 kPa and 0.000158 ± 3.2e-05 kPa | vapor or sublimation pressure (1048 K): 0.000158 ± 4.9e-05 kPa | vapor or sublimation pressure (1049 K): 0.000229 ± 3.5e-05 kPa | vapor or sublimation pressure (1050 K): 0.000182 ± 2.5e-05 kPa | vapor or sublimation pressure (1051 K): 0.000214 ± 3.1e-05 kPa | vapor or sublimation pressure (1052 K): 0.000251 ± 3.6e-05 kPa and 0.000295 ± 4e-05 kPa | vapor or sublimation pressure (1053 K): 0.000251 ± 3.5e-05 kPa | vapor or sublimation pressure (1054 K): 0.000204 ± 4.6e-05 kPa and 0.000263 ± 5.9e-05 kPa | vapor or sublimation pressure (1055 K): 0.000182 ± 4.1e-05 kPa and 0.000204 ± 4.2e-05 kPa | vapor or sublimation pressure (1057 K): 0.000204 ± 5.9e-05 kPa | vapor or sublimation pressure (1059 K): 0.000229 ± 3.6e-05 kPa | vapor or sublimation pressure (1060 K): 0.000275 ± 4.3e-05 kPa | vapor or sublimation pressure (1061 K): 0.000309 ± 4.7e-05 kPa | vapor or sublimation pressure (1062 K): 0.000389 ± 4.9e-05 kPa | vapor or sublimation pressure (1064 K): 0.000275 ± 7.6e-05 kPa and 0.000339 ± 7.9e-05 kPa | vapor or sublimation pressure (1066 K): 0.000275 ± 3e-05 kPa | vapor or sublimation pressure (1068 K): 0.000295 ± 3e-05 kPa and 0.000316 ± 3.2e-05 kPa and 0.000275 ± 2.8e-05 kPa | vapor or sublimation pressure (1069 K): 0.000407 ± 0.00011 kPa and 0.000389 ± 0.00011 kPa | vapor or sublimation pressure (1070 K): 0.000355 ± 5.5e-05 kPa | vapor or sublimation pressure (1071 K): 0.000339 ± 4.6e-05 kPa | vapor or sublimation pressure (1073 K): 0.000398 ± 6e-05 kPa | vapor or sublimation pressure (1074 K): 0.000525 ± 0.00012 kPa | vapor or sublimation pressure (1075 K): 0.000389 ± 7e-05 kPa and 0.000479 ± 7.6e-05 kPa | vapor or sublimation pressure (1077 K): 0.000363 ± 5.6e-05 kPa | vapor or sublimation pressure (1078 K): 0.000407 ± 6.6e-05 kPa | vapor or sublimation pressure (1079 K): 0.000457 ± 4.6e-05 kPa [middle of 4 runs] | vapor or sublimation pressure (1080 K): 0.000501 ± 0.00012 kPa | vapor or sublimation pressure (1082 K): 0.000457 ± 7.2e-05 kPa | vapor or sublimation pressure (1084 K): 0.000537 ± 5.7e-05 kPa and 0.000676 ± 7.1e-05 kPa | vapor or sublimation pressure (1086 K): 0.000676 ± 0.0001 kPa | vapor or sublimation pressure (1087 K): 0.000501 ± 7.7e-05 kPa | vapor or sublimation pressure (1088 K): 0.00055 ± 8e-05 kPa | vapor or sublimation pressure (1089 K): 0.000457 ± 0.00016 kPa and 0.000589 ± 0.00016 kPa | vapor or sublimation pressure (1090 K): 0.00055 ± 0.00015 kPa | vapor or sublimation pressure (1091 K): 0.000708 ± 7.3e-05 kPa | vapor or sublimation pressure (1093 K): 0.000617 ± 9.3e-05 kPa | vapor or sublimation pressure (1095 K): 0.000933 ± 0.00016 kPa | vapor or sublimation pressure (1096 K): 0.000631 ± 0.0001 kPa | vapor or sublimation pressure (1097 K): 0.000631 ± 6.3e-05 kPa and 0.000724 ± 7.3e-05 kPa and 0.000912 ± 9.2e-05 kPa | vapor or sublimation pressure (1098 K): 0.000724 ± 0.00015 kPa and 0.000575 ± 0.00014 kPa and 0.000741 ± 0.00015 kPa | vapor or sublimation pressure (1101 K): 0.000912 ± 0.00013 kPa | vapor or sublimation pressure (1102 K): 0.000724 ± 0.00013 kPa | vapor or sublimation pressure (1103 K): 0.000933 ± 0.00021 kPa | vapor or sublimation pressure (1104 K): 0.000813 ± 0.00017 kPa | vapor or sublimation pressure (1105 K): 0.000871 ± 0.00017 kPa and 0.0012 ± 0.0002 kPa | vapor or sublimation pressure (1107 K): 0.000912 ± 0.00013 kPa and 0.000813 ± 0.00012 kPa and 0.000676 ± 0.00012 kPa | vapor or sublimation pressure (1108 K): 0.0012 ± 0.00012 kPa | vapor or sublimation pressure (1110 K): 0.00117 ± 0.00022 kPa | vapor or sublimation pressure (1111 K): 0.00117 ± 0.00026 kPa | vapor or sublimation pressure (1114 K): 0.001 ± 0.00019 kPa and 0.0011 ± 0.0002 kPa and 0.00105 ± 0.0002 kPa | vapor or sublimation pressure (1115 K): 0.00135 ± 0.00025 kPa | vapor or sublimation pressure (1116 K): 0.00151 ± 0.00024 kPa | vapor or sublimation pressure (1117 K): 0.00117 ± 0.00015 kPa and 0.00102 ± 0.00014 kPa and 0.00115 ± 0.00015 kPa | vapor or sublimation pressure (1118 K): 0.0011 ± 0.00014 kPa and 0.001 ± 0.00013 kPa and 0.00158 ± 0.00019 kPa | vapor or sublimation pressure (1120 K): 0.0017 ± 0.00017 kPa | vapor or sublimation pressure (1121 K): 0.00162 ± 0.00018 kPa | vapor or sublimation pressure (1123 K): 0.00145 ± 0.00018 kPa | vapor or sublimation pressure (1124 K): 0.00115 ± 0.00016 kPa | vapor or sublimation pressure (1125 K): 0.00132 ± 0.00014 kPa and 0.00138 ± 0.00014 kPa | vapor or sublimation pressure (1126 K): 0.00129 ± 0.00014 kPa | vapor or sublimation pressure (1127 K): 0.00145 ± 0.00015 kPa and 0.00129 ± 0.00014 kPa and 0.00191 ± 0.00019 kPa | vapor or sublimation pressure (1129 K): 0.00141 ± 0.00027 kPa and 0.002 ± 0.00031 kPa and 0.00195 ± 0.00031 kPa | vapor or sublimation pressure (1134 K): 0.00174 ± 0.00024 kPa | vapor or sublimation pressure (1135 K): 0.00195 ± 0.00028 kPa | vapor or sublimation pressure (1136 K): 0.00178 ± 0.00027 kPa and 0.00166 ± 0.00027 kPa | vapor or sublimation pressure (1137 K): 0.00245 ± 0.00032 kPa | vapor or sublimation pressure (1138 K): 0.00245 ± 0.00033 kPa | vapor or sublimation pressure (1139 K): 0.00182 ± 0.00026 kPa | vapor or sublimation pressure (1145 K): 0.00224 ± 0.00036 kPa | vapor or sublimation pressure (1147 K): 0.00229 ± 0.00033 kPa | vapor or sublimation pressure (1149 K): 0.00229 ± 0.0003 kPa
